Measured values as given in paper PMC5638327, “Comparison of bioavailability and antiplatelet action of ticagrelor in patients with ST-elevation myocardial infarction and non-ST-elevation myocardial infarction: A prospective, observational, single-centre study” (PLoS ONE, 2017).
Where two headings read alike, the source gives them in different places.

Columns and labels:
[1] = Pharmacokinetic assessment: plasma concentrations by liquid chromatography tandem mass spectrometry after ticagrelor loading dose; assay type: in vivo, human (patients with myocardial infarction); conditions: for Tmax / AUC(0-t) / Cmax: both sexes, human, plasma, 180 mg
Protocol: (§1) Consecutive STEMI and NSTEMI patients admitted to the study site (Cardiology Department, Dr. A. Jurasz University Hospital, Bydgoszcz, Poland) were screened for eligibility. After admission to the study centre, confirmation of the initial diagnosis of STEMI or NSTEMI, and provision of a written informed consent to participate in the trial, all study participants received an oral 300 mg LD of plain aspirin (Polpharma SA, Starogard Gdański, Poland) and 180 mg LD ticagrelor in integral tablets with 250 mL tap water. Subsequently, within 15 minutes of ticagrelor LD, all patients underwent coronary angiography followed by PCI as required. During the periprocedural period, all study participants received unfractionated heparin in body weight adjusted dose according to the European Society of Cardiology (ESC) recommendations. Plasma concentrations of ticagrelor and its active metabolite, as well as their antiplatelet effect, were evaluated according to the sampling schedule employed at our centre in previous PK/PD study (pre-treatment, 0.5 h, 1 h, 2 h, 3 h, 4 h, 6 h and 12 h post ticagrelor LD).
(§2) Blood samples for PK/PD evaluation were obtained from an 18-gauge cannula inserted into one of the forearm veins. The first 5 mL blood was discarded to avoid spontaneous platelet activation. In each patient specimens were collected at the eight pre-defined time. Detailed description of blood sample processing has been published in the study protocol (S1 File).
Ticagrelor and AR-C124910XX plasma concentrations were analyzed with liquid chromatography coupled with tandem mass spectrometry, using a validated method. Lower limits of quantification were 4.69 ng/mL for both ticagrelor and AR-C124910XX.
Statistical calculations were performed using the Statistica 12.5 package (StatSoft, Tulsa, OK, USA). Pharmacokinetic calculations and plots were made using the Matlab R2014 software (Mathworks, Natick, MA, USA); trapezoidal rule was applied to calculate AUC. Data for pharmacokinetic features of ticagrelor and AR-C124910XX, pharmacodynamic outcome variables, creatinine, glomerular filtration rate and left ventricle ejection fraction were presented as medians and interquartile ranges. Data for heart rate, systolic and diastolic blood pressure, age and body mass index were presented as means with standard deviations. […] Continuous variables were compared between both study groups with the Student’s t-test and Mann-Whitney U test, depending on the presence or absence of the normal distribution (as assessed by the Shapiro-Wilk test). Comparisons between categorical variables were performed by the chi-square test, with Yates's correction if necessary, or using Fisher's exact test. […]
Blood samples for pharmacokinetic and phar- infarction; PCI, percutaneous coronary intervention; PD, macodynamic assessment will be drawn at eight prede- pharmacodynamics; PK, pharmacokinetics; STEMI, ﬁned time points according to the blood sampling ST-elevation myocardial infarction. schedule already used at our site in a previous study
( pretreatment baseline, 30 min, 1, 2, 3, 4, 6 andsamples will be stored at temperature below −60°C until 12 hours post-ticagrelor LD— as shown in ﬁgure 1). 31 analysed.
All enrolled patients with ﬁnally unconﬁrmed initial Venous blood for the assessment of pharmacodynam-diagnosis of AMI will be excluded from the primar y ana- ics with the vasodilator-stimulated phosphoprotein lysis. Patients qualiﬁed for urgent coronar y arter y bypass (VASP) assay and multiple electrode aggregometr y surgery within the blood sampling period also will not (MEA) will be collected into trisodium citrate and be included in the analysis. All study participants not hirudin vacuum test tubes, respectively. The ﬁrst 3–5mL receiving PCI will be reported. of blood will be discarded to avoid spontaneous platelet Study population activation. The pharmacodynamic analysis will be per- […]

[2] = system: platelet reactivity; experiment: Platelet reactivity by Multiplate (multiple electrode aggregometry) after ticagrelor loading dose; assay type: in vivo, human (patients with myocardial infarction); conditions: median [interquartile range]; for time to achieve platelet inhibition below the cut-off value for HPR (Multiplate): HPR = AUC >46 U
Protocol: as §1, §2
Platelet reactivity was assessed using VASP and Multiplate. The VASP assay (Biocytex, Inc., Marseille, France) was used in all study participants, while Multiplate (Roche Diagnostics International Ltd., Rotkreuz, Switzerland) was used in all except in those treated with glycoprotein (GP) IIb/IIIa receptor inhibitors. Pharmacodynamic evaluation was performed according to the manufacturers' instructions. HPR was defined as platelet reactivity index >50% for the VASP assay and AUC >46 units (U) for Multiplate. […]
Table 1 Inclusion and exclusion criteria of the PINPOINT study
Inclusion criteria Exclusion criteria
▸ Provision of informed consent prior to any ▸ Treatment with ticlopidine, clopidogrel, prasugrel or ticagrelor within study-specific procedure 14 days before the study enrolment
▸ Diagnosis of STEMI or NSTEMI ▸ Hypersensitivity to ticagrelor
▸ Men or non-pregnant women ▸ Current treatment with oral anticoagulant or chronic therapy with low-molecular-weight heparin
▸ Provision of informed consent for angiography ▸ Active bleeding […]
▸ History of intracranial haemorrhage
▸ Fibrinolytic treatment during the index event
▸ Recent gastrointestinal bleeding (within 30 days)
▸ History of coagulation disorders
▸ History of moderate or severe hepatic impairment
▸ History of major surgery or severe trauma (within 3 months)
▸ Second or third degree atrioventricular block during screening for […]
▸ Patient requiring dialysis
▸ Manifest infection or inflammatory state
▸ Killip class III or IV during screening for eligibility
▸ Current therapy with strong CYP3A inhibitors or strong CYP3A […]
NSTEMI, non-ST-elevation myocardial infarction; PCI, percutaneous coronary intervention; STEMI, ST-elevation myocardial infarction. […]
MEA (Roche Diagnostics International, Rotkreuz, staff and the attending physician. The type of implanted Switzerland) will be used at all predeﬁned time points stent and choice of the access site for coronary invasive ( ﬁgure 1) for all study participants with the exception of procedure (radial or femoral ) will be at the discretion of those treated with glycoprotein IIb/IIIa (GP IIb/IIIa) the operator. During the periprocedural period, all study receptor inhibitors as this therapy may affect the results participants will receive unfractionated heparin in body of platelet reactivity assessment per formed with MEA weight adjusted dose according to the ESC recommenda-( ﬁgure 2). Pharmacodynamic assessment with VASP and tions.2336Administration of GP IIb/IIIa receptor in- […]

[3] = po, NSTEMI patients, oral 180 mg ticagrelor LD, 0 to 12 hours, median [interquartile range]
[4] = po, STEMI patients, oral 180 mg ticagrelor LD, 0 to 12 hours, median [interquartile range]

CCCSc1nc(N[C@@H]2C[C@H]2c2ccc(F)c(F)c2)c2nnn([C@@H]3C[C@H](OCCO)[C@@H](O)[C@H]3O)c2n1 [ticagrelor]
Tmax ([1]; oral, NSTEMI opioid-treated (morphine) patients (second value of the pair), post hoc analysis, median [interquartile range]): 4 h
Tmax ([1]; oral, NSTEMI patients without morphine (first value of the pair), post hoc analysis, median [interquartile range]): 1 h
AUC(0-t) ([1]; oral, internal pilot study, first 30 patients with STEMI, mean and SD, read-out: AUC(0–6)): 2.38 ± 2.28 µg·h/mL
AUC(0-t) ([1]; po, NSTEMI patients (n = 24), oral 180 mg ticagrelor LD, median [interquartile range], read-out: AUC(0–6)): 3.99 µg·h/mL
Cmax [1, 3]: 1.16 µg/mL
Tmax [1, 3]: 2.5 h
AUC(0-t) ([1]; po, NSTEMI patients, oral 180 mg ticagrelor LD, median [interquartile range], read-out: AUC(0–12)): 8.6 µg·h/mL
AUC(0-t) ([1]; po, STEMI patients (n = 49), oral 180 mg ticagrelor LD, median [interquartile range], read-out: AUC(0–6)): 2.49 µg·h/mL
Cmax [1, 4]: 1.11 µg/mL
Tmax [1, 4]: 4 h
AUC(0-t) ([1]; po, STEMI patients, oral 180 mg ticagrelor LD, median [interquartile range], read-out: AUC(0–12)): 5.68 µg·h/mL
lower AUC(0–6) in STEMI than in NSTEMI patients ([1]; first 6 h after 180 mg ticagrelor LD): 38%
Platelet reactivity (Multiplate) ([2]; NSTEMI, 0.5 h after 180 mg ticagrelor LD): 49.0 [21.0–86.0] U
Platelet reactivity (Multiplate) ([2]; NSTEMI, 2 h after 180 mg ticagrelor LD): 18.0 [10.0–31.0] U
time to achieve platelet inhibition below the cut-off value for HPR (Multiplate) ([2]; NSTEMI): 0.5 [0.5–2.0] h
Platelet reactivity (Multiplate) ([2]; STEMI, 0.5 h after 180 mg ticagrelor LD): 88.0 [51.5–103.5] U
Platelet reactivity (Multiplate) ([2]; STEMI, 2 h after 180 mg ticagrelor LD): 36.0 [22.0–52.5] U
time to achieve platelet inhibition below the cut-off value for HPR (Multiplate) ([2]; STEMI): 2.0 [0.5–3.0] h
